Earlier results, collected in patent publication US20170143768A1, “OINTMENT FOR THE TREATMENT OF HEMORRHOIDAL DISEASE” (Global Treat SRL, priority 2014, published 2017).

CC12CCC(CC1=O)C2(C)C (stereo not shown) [camphor]
solubility in water: water-soluble
